According to patent US10219516B2, “Molecules having pesticidal utility, and intermediates, compositions, and processes, related thereto” (priority 2015, dated 2019):

Tests used:
Format in all cases: in vivo
[1] = system: Cabbage Looper (Trichoplusia ni, TRIPNI); assay: Bioassay on Cabbage Looper (CL), 128-well diet tray assay; conditions: Trichoplusia ni; Species CL (Cabbage Looper); read-out: CL (Biological Results, rating)
Procedure, shortened: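 Second-instar larvae, one to five per well, were placed on artificial diet surface-treated with 50 μg/cm^2 test molecule applied in 90:10 acetone-water and dried, eight wells per molecule. Trays were covered, vented and held at 25° C., 14:10 light-dark for five to seven days; percent mortality per well was averaged.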

[2] = system: Beet Armyworm (Spodoptera exigua, LAPHEG); assay: Bioassay on Beet Armyworm (BAW), 128-well diet tray assay; conditions: Species BAW (Beet Armyworm), read-out: BAW (Biological Results, rating)
Procedure, shortened: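 Test molecule dissolved in acetone-water 90:10 is applied at 50 μg/cm^2 onto artificial diet and allowed to dry. Second instar larvae, one to five per well, are then added, and trays are vented and kept at 25° C. for five to seven days before mortality is scored.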

[3] = system: Yellow Fever Mosquito (Aedes aegypti, AEDSAE); assay: Bioassay on Yellow Fever Mosquito (YFM), 96-well plate larval assay; conditions: Species YFM (Yellow Fever Mosquito)
Procedure, shortened: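 Aedes aegypti larvae (about 1 day old) in liver-powder water were added to plates dispensed from DMSO master plates (4000 ppm stock) diluted with 90:10 water/acetone; six replicate plates per master. Lidded plates were held at room temperature for 3 days, then each well was scored for mortality.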

| Compound | pest or weed control at 50 µg/cm2 [1] | pest or weed control at 50 µg/cm2 [2] | YFM (Biological Results, rating) [3] |
| --- | --- | --- | --- |
| Nc1c(F)ccc(NC(=O)c2cc(NC(=O)[C@H]3[C@H](c4ccc(Cl)c(Cl)c4)C3(Cl)Cl)ccc2Cl)c1F [F314, N-(3-Amino-2,4-difluorophenyl)-2-chloro-5-((1R,3R)-2,2-dichloro-3-(3,4-dichlorophenyl)cyclopropane-1-carboxamido)benzamide] | 50 to 100% | 50 to 100% | A (80-100) |
| Nc1c(F)ccc(NC(=O)c2cc(NC(=O)[C@H]3[C@H](c4cc(Cl)c(Cl)c(Cl)c4)C3(Cl)Cl)ccc2Cl)c1F [F315, N-(3-Amino-2,4-difluorophenyl)-2-chloro-5-((1R,3R)-2,2-dichloro-3-(3,4,5-trichlorophenyl)cyclopropane-1-carboxamido)benzamide] | 50 to 100% | 50 to 100% | A (80-100) |
| O=C(Nc1ncc(F)cc1F)c1cc(NC(=O)[C@H]2[C@H](c3ccc(F)c(Cl)c3)C2(Cl)Cl)ccc1Cl [F316, 2-Chloro-5-((1R,3R)-2,2-dichloro-3-(3-chloro-4-fluorophenyl)cyclopropane-1-carboxamido)-N-(3,5-difluoropyridin-2-yl)benzamide] | 50 to 100% | 50 to 100% | A (80-100) |
| Nc1c(F)ccc(NC(=O)c2cc(NC(=O)[C@H]3[C@H](c4ccc(F)c(Cl)c4)C3(Cl)Cl)ccc2Cl)c1F [F317, N-(3-Amino-2,4-difluorophenyl)-2-chloro-5-((1R,3R)-2,2-dichloro-3-(3-chloro-4-fluorophenyl)cyclopropane-1-carboxamido)benzamide] | 50 to 100% | 50 to 100% | A (80-100) |
| Nc1cc(C(F)(F)F)cc(NC(=O)c2cc(NC(=O)C3C(c4cc(Cl)cc(Cl)c4)C3(Cl)Cl)ccc2Cl)n1 (stereo not drawn) [F328, N-(6-Amino-4-(trifluoromethyl)pyridin-2-yl-2-chloro-5-(trans-2,2-dichloro-3-(3,5-dichlorophenyl)cyclopropane-1-carboxamido)benzamide] | 50 to 100% | 50 to 100% | A (80-100) |
| Nc1cc(NC(=O)c2cc(NC(=O)[C@H]3[C@H](c4cc(Cl)cc(Cl)c4)C3(Cl)Cl)ccc2Cl)c(F)cc1F [F353, N-(5-Amino-2,4-difluorophenyl)-2-chloro-5-((1R,3R)-2,2-dichloro-3-(3,5-dichlorophenyl)cyclopropane-1-carboxamido)benzamide] | 50 to 100% | 50 to 100% | A (80-100) |
| Nc1cc(NC(=O)c2cc(NC(=O)[C@H]3[C@H](c4ccc(Cl)c(Cl)c4)C3(Cl)Cl)ccc2Cl)c(F)cc1F [F354, N-(5-Amino-2,4-difluorophenyl)-2-chloro-5-((1R,3R)-2,2-dichloro-3-(3,4-dichlorophenyl)cyclopropane-1-carboxamido)benzamide] | 50 to 100% | 50 to 100% | A (80-100) |
| O=C(Nc1cncc([N+](=O)[O-])c1)c1cc(NC(=O)[C@H]2[C@H](c3cc(Cl)cc(Cl)c3)C2(Cl)Cl)ccc1Cl [F358, 2-Chloro-5-((1R,3R)-2,2-dichloro-3-(3,5-dichlorophenyl)cyclopropane-1-carboxamido)-N-(5-nitropyridin-3-yl)benzamide] | 50 to 100% | 50 to 100% | A (80-100) |
| O=C(Nc1cncc([N+](=O)[O-])c1)c1cc(NC(=O)[C@H]2[C@H](c3ccc(Cl)c(Cl)c3)C2(Cl)Cl)ccc1Cl [F359, 2-Chloro-5-((1R,3R)-2,2-dichloro-3-(3,4-dichlorophenyl)cyclopropane-1-carboxamido)-N-(5-nitropyridin-3-yl)benzamide] | 50 to 100% | 50 to 100% | A (80-100) |
